The record followed here is patent US8969387B2, “Pyrrole compounds” (Takeda Pharmaceutical Company Limited, priority 2008, dated 2015).

Each structure is given as a SMILES string. Where a name gives a salt, the structure may show the parent alone.

The subject of this data set is Caspase-3/7 activity in HepG2 cells. Put plainly: Caspase-3/7 activity test. Format: cell-based, human. The note with it: HepG2, 100 μM, one day; relative to Staurosporine maximum (100%) and no test reagent (0%). How it is done:
Human liver cancer-derived cell line HepG2 (ATCC No. HB-8065) was passaged using Dulbecco's Modified Eagle medium (DMEM; Invitrogen) containing 10% fetal bovine serum (FBS; TRACE SCIENTIFIC LTD.), 1 mmol/L sodium pyruvate (Invitrogen), 2 mmol/L L-glutamine (Invitrogen), 50 IU/mL penicillin (Invitrogen) and 50 μg/mL streptomycin (Invitrogen) at 5% CO2, 37° C. The test reagent was prepared with DMSO to 10 mM, and further diluted with DMEM medium containing 0.5% FBS, 1 mmol/L sodium pyruvate, 2 mmol/L L-glutamine, 50 IU/mL penicillin and 50 μg/mL streptomycin to a final concentration of DMSO of 0.1%. HepG2 (2×10^4 cells/well) was cultured on a 96 well white plate (Costar) with the test reagent at 5% CO2, 37° C. After culture for one day, the intracellular ATP content was measured using ATPLite™ (PerkinElmer Life Sciences). The results are shown in Table 4 (n23, average value±SD) as a relative value (%) to control (without addition of drug).
The Caspase-3/7 activity in the cells cultured for one day by a method similar to that in Experimental Example 3 was measured using Caspase-Glo 3/7 Assay (Promega). The results are shown in Table 4 (n≧3, average value SD) as relative activity (%) of each reagent based on the maximum value of Caspase-3/7 activity when exposed to Staurosporine (100%), and the activity without addition of a test reagent (0%).

Take `CNCc1cn(S(=O)(=O)c2cc(C)ccn2)c(-c2cccnc2F)c1F` [Example 2, 1-{4-Fluoro-5-(2-fluoropyridin-3-yl)-1-[(4-methylpyridin-2-yl)sulfonyl]-1H-pyrrol-3-yl}-N-methylmethanamine hydrochloride]: the “Caspase-3/7 activity (%, 100 μM)” value is recorded as −1.1%. For `CNCc1cn(S(=O)(=O)c2cc(OC)ccn2)c(-c2cccnc2F)c1F` [Example 4, 1-{4-Fluoro-5-(2-fluoropyridin-3-yl)-1-[(4-methoxypyridin-2-yl)sulfonyl]-1H-pyrrol-3-yl}-N-methylmethanamine hydrochloride] the value was −0.6%; for `CNCc1cn(S(=O)(=O)c2ccc(C)nc2)c(-c2cccnc2F)c1F` [Example 8, 1-{4-Fluoro-5-(2-fluoropyridin-3-yl)-1-[(6-methylpyridin-3-yl)sulfonyl]-1H-pyrrol-3-yl}-N-methylmethanamine 0.5 fumarate], 2.4%. In the case of `CNCc1cn(S(=O)(=O)c2ccc(F)cn2)c(-c2cccnc2F)c1F` [Example 3, 1-{4-Fluoro-5-(2-fluoropyridin-3-yl)-1-[(5-fluoropyridin-2-yl)sulfonyl]-1H-pyrrol-3-yl}-N-methylmethanamine hydrochloride], the “Caspase-3/7 activity (%, 100 μM)” value is given as −0.5%. For `CNCc1cn(S(=O)(=O)c2cncc(F)c2)c(-c2cccnc2F)c1F` [Example 5, 1-{4-Fluoro-5-(2-fluoropyridin-3-yl)-1-[(5-fluoropyridin-3-yl)sulfonyl]-1H-pyrrol-3-yl}-N-methylmethanamine hydrochloride] the value was 0.3%; for `CNCc1cn(S(=O)(=O)c2ccc(OC)cn2)c(-c2cccnc2F)c1F` [Example 10, 1-{4-Fluoro-5-(2-fluoropyridin-3-yl)-1-[(5-methoxypyridin-2-yl)sulfonyl]-1H-pyrrol-3-yl}-N-methylmethanamine hydrochloride], 0.9%.
